{"source": "patent US12606829B2", "about": "“Compositions for herpesvirus transcriptional feedback circuit disruption and uses thereof” (priority 2018, dated 2026)", "key": {"HSV-1 (17syn+ IE175-YFP)": {"system": "HSV-1 (17syn+ IE175-YFP)", "test": "Single-round viral titering of HSV-1 in ARPE-19 cells (TCID50)", "type": "cell-based", "source_text": "(§1) FIG. 7: Feedback circuit disruption interferes with viral replication even at high MOI and limits the evolution of resistance. (a) Flow cytometry of ARPE-19 cells nucleofected with the 28 bp dsDNA that titrates IE86 (C-DOT^C) or scrambled dsDNA sequence (C-DOT^Scram) and infected with a clinically derived CMV (TB40E) encoding an IE86-YFP (MOI=0.1) then analyzed at 2 days post infection (dpi). (b) Flow cytometry of ARPE-19 cells nucleofected with a 29 bp DNA to titrate IE175 (C-DOT^H) or scrambled dsDNA sequence (C-DOT^Scram) and infected with HSV-1 (17syn+strain) encoding an IE175-YFP (MOI=0.1) then analyzed at 2 dpi. (c) Single-round viral titering of CMV in the presence of 100 μM GCV, PBS, or 25 μM C-DOT^C (or C-DOT^Scram) at 4-days post infection under different initial MOIs. (d) Single-round viral titering of HSV-1 in presence of 100 μM ACV or 25 μM C-DOT^H (or C-DOT^Scram) at 4-days post infection under different HSV-1 MOIS. (e) Schematic of the continuous-culture experiment; ARPE-19 cells (+/−C-DOT) were infected with CMV or HSV-1 (0.1 MOI) and at 4-day post infection, supernatant was collected and was used to infect naïve ARPE-19 cells +/−C-DOT until day 60. (f) Continuous culture titers for CMV (TB40E-IE86-YFP) in the presence of C-DOT^C (red) or mock treatment (black). […]"}, "HSV-1": {"system": "HSV-1", "test": "Cell-death pathway analysis in the context of HSV-1 infection", "type": "cell-based", "source_text": "(§2) FIG. 10 provides a cell-death pathway analysis (pharmacological inhibitors). The mechanism of C-DOT-induced cell death (in the context of the virus infection) was identified using three separate approaches: (i) RNAseq: to identify misregulated expression patterns and the cell-death pathways these group into (ii) Antibody staining: for specific cell-death pathway markers (iii) Pharmacological inhibitors: of cell-death pathways to test which mitigate C-DOT-induced death. […] C-DOT alone caused cell death in CMV and HSV-1."}, "CMV (TB40E-IE86-YFP)": {"system": "CMV (TB40E-IE86-YFP)", "test": "Single-round viral titering of CMV in ARPE-19 cells (TCID50)", "type": "cell-based", "source_text": "as §1"}, "[1]": {"system": "CMV (TB40E-IE86-YFP or AD169)", "test": "C-DOT antiviral effect under high and low cGAS-STING expression (MRC-5, ARPE-19)", "type": "cell-based", "conditions": "MRC-5 (high) and ARPE-19 (low cGAS-STING activity), 4 days post infection", "procedure": "However, to verify that C-DOT activity is independent of cGAS-STING, C-DOTs were tested under conditions of high and low cGAS-STING expression and observed little difference in C-DOT antiviral effects and no effects for C-DOT^Scram in either setting (FIG. 15b).\nTotal RNA was extracted from cells and corresponding cDNA was quantified by qPCR using sequence specific primers for TLR9 (see Extended Data Table 1 for sequences). […] ARPE-19 (low cGAS-STING activity) and MRC-5 cells (high cGAS-STING activity) were nucleofected with C-DOTE or mock and infected with TB40E-IE86-YFP or AD169, respectively. Virus titers were assayed by TCID-50 at 4 days post infection. (c)C-DOT^C decreases CMV titers below detection by day 60 in the continuous culture setting. CMV titers from the continuous culture experiment followed out to day 60. ARPE-19 cells (+/−25 μM C-DOT) were infected with CMV (TB40E-IE86-YFP; MOI=0.1). (d) CMV and HSV-1 rapidly acquire resistance to approved antivirals (fomivirsen and acyclovir). Viral titers from the continuous culture experiment in the presence or absence of fomivirsen. Mock- or fomivirsen-nucleofected ARPE-19 cells were infected with CMV (TB40E-IE86-YFP; MOI=0.1); at 4 days post infection, supernatants were transferred to infect new naïve ARPE-19 cells (+/−fomivirsen) and transfers repeated every 4 days until day 44. […]"}, "CMV": {"system": "CMV", "test": "Cell-death pathway analysis in the context of CMV infection", "type": "cell-based", "source_text": "as §2"}, "RhCMV 68.1 GFP": {"system": "RhCMV 68.1 GFP", "test": "RhCMV replication in Telo-RF cells (TCID-50)", "type": "cell-based, rhesus CMV", "conditions": "MOI=0.1, 4 days post infection", "procedure": "(§3) FIG. 14: C-DOTs can be engineered to interfere with a broad range of species-specific herpesviruses including drug-resistant strains. (a) Sequence homology for the crs of human CMV, rhesus CMV (RhCMV), and murine CMV (MCMV). Sequence homology and divergence are represented. […] NIH 3T3 mouse fibroblast cells were nucleofected with either 28 bp C-DOT^MCMY, or C-DOT^Scram, or mock nucleofected 24 hours prior to MCMV infection at MOI=0.1. 4 days post infection, virus titers were assayed by TCID50. […] (Upper) Fluorescent micrographs, 4-day post nucleofection, of Telo-RF cells nucleofected with either a 28 bp C-DOT^RhCMV, or a C-DOT^Scram, or mock nucleofected and then infected with RhCMV (RhCMV 68.1 GFP) at MOI=0.1. (Lower) Virus titers assayed by TCID-50 at 4 days post infection. […] MRC-5 cells were nucleofected with C-DOT^C or C-DOT^Scram then infected 24-hour later with either the parent CMV AD169 (control) or GCV^R or FOS^R strains (CMV GDGrK17, CMV GDGrP53, CMV 759rD100-1, CMV PFArD100). Virus titers were assayed by TCID-50 at 4 days post infection."}, "MCMV": {"system": "MCMV", "test": "MCMV replication in NIH 3T3 mouse fibroblast cells (TCID50)", "type": "cell-based, murine CMV", "conditions": "NIH 3T3, MOI=0.1, 4 days post infection", "procedure": "as §3"}}, "note": "Oligonucleotides are written 5' to 3', each unit as a sugar letter and its base; * is a phosphorothioate linkage, no mark a phosphodiester; rarer units and linkages stand in square brackets, end groups in braces. Plain capitals give the bases only. d = 2'-deoxy (DNA)"}
{"compound": "C-DOT^Scram: scrambled dsDNA sequence, phosphorothioated, negative control; Fw A*TACCGCGTAA*CCAGAGGT*ATATAGGT*C (SEQ ID NO: 40) (sense ATACCGCGTAACCAGAGGTATATAGGTC; antisense GACCTATATACCTCTGGTTACGCGGTAT; phosphorothioate; (1)..(2) A Phosphorothioate bond is present between the nucleotides at positions 1 and 2; (11)..(12) A Phosphorothioate bond is present between the nucleotides at positions 11 and 12; (19)..(20) A Phosphorothioate bond is present between the nucleotides at positions 19 and 20; (27)..(28) A Phosphorothioate bond is present between the nucleotides at positions 27 and 28; (1)..(2) A Phosphorothioate bond is present between the nucleotides at positions 1 and 2.; (9)..(10) A Phosphorothioate bond is present between the nucleotides at positions 9 and 10.; (17)..(18) A …)", "values": [{"measurement": "antiviral effects", "setting": "HSV-1 (17syn+ IE175-YFP); HSV-1", "result": "did not exhibit antiviral effects"}, {"measurement": "cell death", "setting": "HSV-1", "result": "minimal cell death"}, {"measurement": "antiviral effects", "setting": "CMV (TB40E-IE86-YFP)", "result": "did not exhibit antiviral effects"}, {"measurement": "antiviral effects under high and low cGAS-STING expression", "setting": "[1]", "result": "no effects"}, {"measurement": "cell death", "setting": "CMV", "result": "minimal cell death"}]}
{"compound": "Nc1nc2c(ncn2COCCO)c(=O)[nH]1", "note": "[ACV, acyclovir]", "values": [{"measurement": "reduction in viral replication", "setting": "HSV-1 (17syn+ IE175-YFP); HSV-1, MOI=2, 100 μM ACV or 25 μM C-DOT^H, 4 days post infection", "result": "35-70 ×"}]}
{"compound": "Nc1nc(O)c2ncn(COC(CO)CO)c2n1", "note": "[GCV, ganciclovir]", "values": [{"measurement": "reduction in viral replication", "setting": "CMV (TB40E-IE86-YFP); MOI=2, 100 μM GCV or 25 μM C-DOT^C, 4 days post infection", "result": "35-70 ×"}]}
{"compound": "C-DOT^RhCMV: 28 bp dsDNA with rhesus CMV crs; Fw G*ACAGATCGT*TTAGGGAAC*CGTACACG*A (SEQ ID NO: 8) (sense dG*dAdCdAdGdAdTdCdGdT*dTdTdAdGdGdGdAdAdC*dCdGdTdAdCdAdCdG*dA; antisense TCGTGTACGGTTCCCTAAACGATCTGTC; antisense: DNA, backbone not given here)", "values": [{"measurement": "effect on RhCMV replication", "setting": "RhCMV 68.1 GFP", "result": "downregulates RhCMV replication"}]}
{"compound": "C-DOT^MCMV: 28 bp dsDNA with murine CMV crs; Fw G*ACAGACCA*GCGTCGG*TACCGTACACG*A (SEQ ID NO: 9) (sense dG*dAdCdAdGdAdCdCdA*dGdCdGdTdCdGdG*dTdAdCdCdGdTdAdCdAdCdG*dA; antisense TCGTGTACGGTACCGACGCTGGTCTGTC; antisense: DNA, backbone not given here)", "values": [{"measurement": "effect on MCMV replication", "setting": "MCMV", "result": "interferes with MCMV replication"}]}
